Measured values published in patent publication US11325896B2, “Antagonists of the muscarinic acetylcholine receptor M4” (Vanderbilt University, priority 2017, dated 2022).
pIC50: −log10 of the molar value.

Assays:
human mAChR M4 = molecular target: T1, human mAChR M4 (Homo sapiens, UniProt P08173); assay: mAChR M4 cell-based functional assay (calcium flux, decrease of EC80 acetylcholine response); conditions: for remaining activity at 30 µM: % ACh maximum at 30 μM, human M4, read-out: Emin; for pIC50: M4/Gqi5/CHO-K1 cells, decrease of response to EC80 acetylcholine
T1 construct: expressed in transfected cells; host or cells: CHO-K1 (ATCC), stably co-expressing the chimeric G protein Gqi5
T1 sequence (P08173 1-479): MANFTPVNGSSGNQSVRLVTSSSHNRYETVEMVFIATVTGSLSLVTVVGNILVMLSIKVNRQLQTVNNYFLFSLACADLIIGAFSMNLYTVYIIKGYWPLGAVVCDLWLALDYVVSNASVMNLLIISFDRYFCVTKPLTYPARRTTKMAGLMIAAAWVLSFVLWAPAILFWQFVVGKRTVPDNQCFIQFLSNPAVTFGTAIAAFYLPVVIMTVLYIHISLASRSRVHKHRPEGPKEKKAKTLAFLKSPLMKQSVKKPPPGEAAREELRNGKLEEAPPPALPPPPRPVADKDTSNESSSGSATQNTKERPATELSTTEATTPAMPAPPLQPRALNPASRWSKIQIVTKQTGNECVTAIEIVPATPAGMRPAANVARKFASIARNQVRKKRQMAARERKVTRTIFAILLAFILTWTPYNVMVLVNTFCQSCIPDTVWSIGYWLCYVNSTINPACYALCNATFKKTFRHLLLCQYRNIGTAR
Method: Human or rat M4 cDNA, along with the chimeric G protein Gqi5, were transfected into Chinese hamster ovary (CHO-K1) cells purchased from the American Type Culture Collection using Lipofectamine2000. M4/Gqi5/CHO cells were grown in Ham's F-12 medium containing 10% heat-inactivated fetal bovine serum (FBS), 20 mM HEPES, 500 μg/mL G418 sulfate, and 200 μg/mL Hygromycin B.
For high throughput measurement of agonist-evoked increases in intracellular calcium, CHO-K1 cells stably expressing muscarinic receptors were plated in growth medium lacking G418 and hygromycin at 15,000 cells/20 μL/well in Greiner 384-well black-walled, tissue culture (TC)-treated, clear-bottom plates (VWR). Cells were incubated overnight at 37° C. and 5% CO2. The next day, cells were washed using an ELX 405 (BioTek) with assay buffer: the final volume was then aspirated to 20 μL. Next, 20 μL of a 2.3 μM stock of Fluo-4/acetoxymethyl ester (Invitrogen, Carlsbad, Calif.), prepared as a 2.3 mM stock in DMSO and mixed in a 1:1 ratio with 10% (w/v) Pluronic F-127 and diluted in assay buffer, was added to the wells and the cell plates were incubated for 50 min at 37° C. and 5% CO2. Dye was removed by washing with the ELX 405 and the final volume was aspirated to 20 μL. Compound master plates were formatted in a 10 point concentration-response curve (CRC) format (1:3 dilutions) in 100% DMSO with a starting concentration of 10 or 1 mM using a BRAVO liquid handler (Agilent). Test compound CRCs were then transferred to daughter plates (240 nL) using the Echo acoustic plate reformatter (Labcyte, Sunnyvale, Calif.) and then diluted into assay buffer (40 μL) to a 2× stock using a Thermo Fisher Combi (Thermo Fisher Scientific, Waltham, Mass.).
Calcium flux was measured using the Functional Drug Screening System (FDSS) 6000 or 7000 (Hamamatsu Corporation, Tokyo, Japan) as an increase in the fluorescent static ratio. Compounds were applied to cells (20 μL, 2×) using the automated system of the FDSS at 2 seconds into the protocol and the data were collected at 1 Hz. At 143 s, 10 μL of an EC20 concentration of the muscarinic receptor agonist acetylcholine was added (5×), followed by the addition of 12 μL of an EC80 concentration of acetylcholine at the 268 s time point (5×). Agonist activity was analyzed as a concentration-dependent increase in calcium mobilization upon compound addition. Positive allosteric modulator activity was analyzed as a concentration-dependent increase in the EC20 acetylcholine response. Antagonist activity was analyzed as a concentration-dependent decrease in the EC80 acetylcholine response; for the purposes of the tables herein, an IC50 (inhibitory concentration 50) was calculated as a concentration-dependent decrease of the response elicited by an EC80 concentration of acetylcholine. Concentration-response curves were generated using a four-parameter logistical equation in XLFit curve fitting software (IDBS, Bridgewater, N.J.) for Excel (Microsoft, Redmond, Wash.) or Prism (GraphPad Software, Inc., San Diego, Calif.) or the Dotmatics software platform (Dotmatics, Bishop's Stortford, UK).
Compounds were synthesized as described above. Activity (IC50 and Emin) was determined in the mAChR M4 cell-based functional assay as described above and the data are shown in Table 4. The compound numbers correspond to those used in Examples 1-4 and Tables 1-3.

[1] = system: haloperidol-induced catalepsy; assay: haloperidol-induced catalepsy in mice; format: in vivo
From the text: Furthermore, haloperidol-induced catalepsy, a model of parkinsonian motor disability, is reduced in M4 knockout mice as compared to wild-type controls. […] The reversal by scopolamine was uncommonly robust and more pronounced than we observe with agents targeting a number of other targets being evaluated for potential antiparkinsonian effects, including metabotropic glutamate (mGlu) receptors mGlu4 or mGlu5, A2A adenosine receptors, and NMDA receptors. […] Taken together with the extensive studies of M4 modulation of basal ganglia and motor function, these studies provide compelling evidence that M4 is the dominant mAChR subtype involved in the antiparkinsonian effects of non-selective mAChR antagonists and provide support for discovery and development of selective M4 antagonists for treatment of neurodegenerative disease such as PD, dystonia, tardive dyskinesia and other movement disorders.

M4 knockout mice = conditions: not the other four mAChR subtypes; cited from earlier work

Row | Compound | remaining activity at 30 µM (human mAChR M4) | pIC50 (human mAChR M4) | reduction of catalepsy induced by haloperidol ([1]; M4 KO mice) | reversal of catalepsy induced by haloperidol ([1]; WT mice) | locomotor-activating effects (M4 knockout mice)
1 | Cc1nn(C)cc1-c1ccc(OCC2CC3(C2)CN(Cc2ccccc2)C3)nn1 [Compound 24, 2-benzyl-6-(((6-(1,3-dimethyl-1H-pyrazol-4-yl)pyridazin-3-yl)oxy)methyl)-2-azaspiro[3.3]heptane] | 36.4% | 5.00 | – | – | –
2 | Cc1cccnc1CN1CC2(CC(COc3ccc(-c4cn(C)nc4C)nn3)C2)C1 [Compound 25, 6-(((6-(1,3-dimethyl-1H-pyrazol-4-yl)pyridazin-3-yl)oxy)methyl)-2-((3-methylpyridin-2-yl)methyl)-2-azaspiro[3.3]heptane] | 16.5% | 5.38 | – | – | –
3 | CN1[C@@H]2C[C@@H](OC(=O)[C@H](CO)c3ccccc3)C[C@H]1[C@@H]1O[C@@H]12 [scopolamine] | – | – | ineffective | completely reversed | dramatically reduced
